Assay: GHS categories as the set defines them, by LD50: 1 up to 5, 2 up to 50, 3 up to 300, 4 up to 2000, 5 above 2000 mg/kg
Settings: rat; in vivo; po

Row | Structure (SMILES) | GHS category
1 | CC(F)(Cl)Cl | 5
2 | CCOC(=O)C1CN(C)C2CCCC(C)N2C1=O (stereo not given) | 5
3 | CN(C(=O)CC(=O)N(C)c1c(I)c(C(=O)NC(CO)C(O)CO)c(I)c(C(=O)NC(CO)C(O)CO)c1I)c1c(I)c(C(=O)NC(CO)C(O)CO)c(I)c(C(=O)NC(CO)C(O)CO)c1I (stereo not given) | 5
4 | OC1CCC(N2CCCCC2)CC1 (stereo not given) | 5
5 | C=C[Si](C)(C)Cl | 3
6 | CNC[C@@H]1CC[C@@H](N)[C@@H](O[C@H]2[C@H](O)[C@@H](O[C@H]3OC[C@](C)(O)[C@H](NC)[C@H]3O)[C@H](N)C[C@@H]2N)O1 | 5
7 | CC(C)C1OCCN1CCO (stereo not given) | 4
8 | CCCNC(=O)c1sc(-c2ccc(OC)c(OC)c2)nc1C | 5
9 | C/C=C\[C@@H]1[C@@H](C(=O)OCc2c(F)c(F)c(COC)c(F)c2F)C1(C)C | 5
10 | CC(C)(C)OOC(C)(C)c1ccc(C(C)(C)OOC(C)(C)C)cc1 | 5
11 | O=C1c2ccc3c4ccc5c6c(ccc(c7ccc(c2c37)C(=O)N1CCc1ccccc1)c64)C(=O)N(CCc1ccccc1)C5=O | 5
12 | CC(C)OC(=O)c1cc(Cl)ccc1OC(N)=O | 5
13 | CC(=O)C(C)O (stereo not given) | 5
14 | C[C@]12CC[C@H](O)CC1=CC[C@@H]1[C@@H]2CC[C@]2(C)C(=O)CC[C@@H]12 | 5
15 | Cn1c(=O)n(-c2ccccc2)c2cc(Cl)ccc21 | 4
16 | COc1nc(OC)nc(C(=O)c2cccc(F)c2N(C)S(=O)(=O)C(F)(F)F)n1 | 5
17 | CCN1CCN(C(=O)N[C@@H](C(=O)N[C@@H]2C(=O)N3[C@@H]2SC(C)(C)[C@H]3C(=O)O)c2ccccc2)C(=O)C1=O | 5
18 | CCC(=O)O[C@@H]1C=C2CCC3C(CCC4(C)C3CC[C@@H]4OC(=O)CC)C2CC1 (stereo not given in full) | 5
19 | Cn1c(=O)c2[nH]c(=O)[nH]c2n(C)c1=O | 5
20 | CCCCCCCCCCCCCOC(=O)CCCCC(=O)OCCCCCCCCCCCCC | 5
21 | O=C1NC(c2ccccc2)=C2C(=O)NC(c3ccccc3)=C12 | 5
22 | CC(C)(C)c1cc(Cn2c(=O)n(Cc3cc(C(C)(C)C)c(O)c(C(C)(C)C)c3)c(=O)n(Cc3cc(C(C)(C)C)c(O)c(C(C)(C)C)c3)c2=O)cc(C(C)(C)C)c1O | 5

Row | Structure (SMILES) | GHS category
23 | Cc1ccc2oc(C3(Cn4ccnc4)OCCO3)cc2c1 | 4
24 | Oc1c(Br)ccc2c(O)c(Br)ccc12 | 5
25 | CCCCCCCCC(C)C=O (stereo not given) | 5
26 | CCCCCCCCC=CCCCCCCCCCCCC(=O)NCCCN(C)C | 5
27 | c1ccc(-c2nc3ccccc3o2)cc1 | 5
28 | CCOCC1COC(Cn2cncn2)(c2cc3cc(Cl)cc(Cl)c3o2)O1 (stereo not given) | 4
29 | CCCC(=O)O[C@]1(C(=O)COC(C)=O)CC[C@H]2[C@@H]3C[C@H](F)C4=CC(=O)C=C[C@]4(C)[C@@]3(F)[C@@H](O)C[C@@]21C | 5
30 | O=S(=O)(O)c1cc(-n2nc3ccc4ccccc4c3n2)ccc1C=Cc1ccccc1 | 5
31 | CNCC1CCC(N)C(OC2C(N)CC(N)C(OC3OCC(C)(O)C(NC)C3O)C2O)O1 (stereo not given) | 5
32 | O=C(O)CSCC(=O)NC1CCSC1=O (stereo not given) | 5
33 | CCCc1ccc(OCC(=O)N2CCN(C(=O)COc3ccc(CCC)cc3OC)CC2)c(OC)c1 | 4
34 | CC[C@H]1CO[C@@](Cn2ccnc2)(c2cc3cc(Cl)cc(Cl)c3o2)O1 | 4
35 | c1ccc(OCCOc2ccccc2)cc1 | 5
36 | CN(CCCN1c2ccccc2CCc2ccccc21)CC(=O)c1ccc(Cl)cc1 | 4
37 | OCC1C(CO)C2(Cl)C(Cl)=C(Cl)C1(Cl)C2(Cl)Cl (stereo not given) | 5
38 | Cc1ccn2c(=O)c(C(=O)NC3CCCC3)cnc2c1 | 3
39 | CCCCCCCCCCN(C)C | 5
40 | CNC(=O)C(=NNc1ccc([N+](=O)[O-])cc1)C(C)=O | 5
41 | COc1ccccc1C=CC=O | 5
42 | C[Si](C)(C)O[Si](C)(C)C | 5
43 | CCCCCCCC[N+](C)(C)[O-] | 5
44 | O=S(=O)(O)c1ccc(Cl)cc1 | 4

Row | Structure (SMILES) | GHS category
45 | CC(=O)C(N=Nc1ccc(C(=O)Nc2ccc(C(N)=O)cc2)cc1)C(=O)Nc1ccc2[nH]c(=O)[nH]c2c1 (stereo not given) | 5
46 | CCCCCC(=O)Nc1ccc(Cc2ccccn2)c([N+](=O)[O-])c1 | 3
47 | O=S(=O)(NCl)c1ccccc1 | 4
48 | CC1(C)S[C@@H]2[C@H](NC(=O)[C@H](N)c3ccc(O)cc3)C(=O)N2[C@H]1C(=O)O | 5
49 | CC(=O)OCC1=C(C(=O)O)N2C(=O)C(NC(=O)Cc3cccs3)C2SC1 (stereo not given) | 5
50 | O=C(Nc1ccc(Cl)cc1)NS(=O)(=O)c1ccc2c(c1)CCC2 | 4
51 | CC(C)=CCC(O)C1=CC(=O)c2c(O)ccc(O)c2C1=O (stereo not given) | 4
52 | CC(C)(C)CNc1nnc(-c2ccccc2)c2ccccc12 | 5
53 | O=C1c2ccccc2C(c2ccc(O)cc2)(c2ccc(O)cc2)N1c1ccccc1 | 5
54 | CCOC(=O)/C=C(C)/C=C/C=C(C)/C=C/c1c(C)cc(OC)c(C)c1C | 5
55 | CCOC(=O)C(=O)Nc1cc(OC)nc(OC)n1 | 4
56 | COC(=O)CCCC(=O)OC | 5
57 | CC(C)c1ccc(S(=O)(=O)O)cc1 | 5
58 | CC(C)(c1ccc(OCC2CO2)cc1)c1ccc(OCC2CO2)cc1 (stereo not given) | 4
59 | COC(=O)C(C)CCC(=O)N(C)C (stereo not given) | 5
60 | ClCC(Cl)C(Cl)(Cl)Cl (stereo not given) | 4
61 | CCOC(=O)c1nn(-c2ccc(OC)cc2)c2c1CCN(c1ccc(N3CCCCC3=O)cc1)C2=O | 5
62 | CCCC(CCC)C(=O)Oc1cc(C(C)C)ccc1C | 5
63 | COc1ccccc1C1NC(=O)C(C)S1 (stereo not given) | 5
64 | O=C(C(Cl)Cl)N(CCO)Cc1ccc(Oc2ccc([N+](=O)[O-])cc2)cc1 | 5
65 | CCCCCOC=O | 5
66 | O=C1NC(=O)C(c2ccccc2)(c2ccc(O)cc2)N1 (stereo not given) | 5

Row | Structure (SMILES) | GHS category
67 | C[SiH](C)O[SiH](C)C | 5
68 | CCCN(CCC)c1c([N+](=O)[O-])cc(C(C)C)cc1[N+](=O)[O-] | 5
69 | CC(C)(Oc1ccc(Cl)cc1)C(=O)NC(=O)NCN1CCOCC1 | 5
70 | CCC[C@H]1CC[C@H](c2ccc(O)cc2)CC1 | 5
71 | Cc1c(Cl)c(=O)oc2cc(OP(=O)(OCCCCCl)OCCCCCl)ccc12 | 3
72 | CCC(=O)OC(C)(C)Cc1ccccc1 | 5
73 | CNc1ccc(C(=O)c2cccs2)cc1O | 5
74 | O=C1Cc2cccc(F)c2N1 | 4
75 | COc1ccccc1C(=O)NS(=O)(=O)c1ccc(C(=O)NC2CC2)cc1 | 5
76 | Cn1c(=O)oc2cc(C(=O)c3ccc(Cl)cc3)ccc21 | 5
77 | CC(C)COC(=O)Cc1ccccc1 | 5
78 | CC(Oc1ccc(Oc2ncc(C(F)(F)F)cc2Cl)cc1)C(=O)O (stereo not given) | 4
79 | Cc1cc(C(=O)Nc2ccccc2C(F)(F)F)n[nH]1 | 5
80 | CCCCCC(CCC)COC(=O)c1ccccc1C(=O)OCC(CCC)CCCCC (stereo not given) | 5
81 | CN1CN(C)CN(C)C1 | 4
82 | O=S(=O)(O)c1ccc2c(c1)-c1nc-2nc2[nH]c(nc3nc(nc4[nH]c(n1)c1ccc(S(=O)(=O)O)cc41)-c1ccc(S(=O)(=O)O)cc1-3)c1ccc(S(=O)(=O)Nc3ccc(S(=O)(=O)CCO)cc3)cc21 | 5
83 | CC1(C(O)CO)OC(c2ccc(Cl)cc2)OC2COC(c3ccc(Cl)cc3)OC21 (stereo not given) | 5
84 | CC[C@@]12C=C(C(=O)OC3OC(=O)c4ccccc43)n3c4c(c5ccccc53)CCN(CCC1)[C@H]42 (stereo not given in full) | 5
85 | CC(=O)N(C)C(=O)Oc1cccc2c1OC1(CCCC1)O2 | 4
86 | CC=Cc1ccc(OCCCCC)c(OC)c1 | 5
87 | CC(=O)Nc1ccccc1CCNC(=O)c1ccc2ccccc2c1O | 5
88 | CO/N=C(\C(=O)N[C@@H]1C(=O)N2C(C(=O)O)=CCS[C@H]12)c1csc(N)n1 | 5

Row | Structure (SMILES) | GHS category
89 | CNS(=O)(=O)c1ccccc1-c1nnc(N)s1 | 5
90 | Cc1ccc(C2=NCOCS2)cc1 | 4
91 | CCCN(CCC)c1c([N+](=O)[O-])cc(S(N)(=O)=O)cc1[N+](=O)[O-] | 5
92 | CCCCCCCCCCCCCC[Si](C)(O[Si](C)(C)C)O[Si](C)(C)C | 5
93 | CCCCC(CC)COC(=O)CC(CC(=O)OCC(CC)CCCC)(OC(C)=O)C(=O)OCC(CC)CCCC (stereo not given) | 5
94 | CCCCCCOc1ccccc1C(N)=O | 5
95 | CCCCCCCCCCCCCC(=O)N[C@@H](CCC(=O)O)C(=O)O | 5
96 | O=C(O)NN1C(CCCOc2ccc(F)cc2)C[C@H](O)[C@@H]2CCCC[C@H]21 (stereo not given in full) | 5
97 | CCCCCCCCCCCCCC(=O)O | 5
98 | CC(C)(N=C(O)C(Br)C(C)(C)C)c1ccccc1 (stereo not given) | 5
99 | O=C(NC(=O)c1c(F)cccc1F)Nc1ccc(Oc2ccc(C(F)(F)F)cc2Cl)cc1F | 5
100 | CCCc1nc(C)c2c(=O)nc(-c3cc(S(=O)(=O)O)ccc3OCC)[nH]n12 | 5
101 | CCCOC(=O)Nc1nc(N2CC=CCC2)cc2nc(=O)on12 | 5
102 | CCOC(=O)CC1(C)OCCO1 | 5
103 | COc1cc2c(cc1OC)C(c1ccccc1F)N(c1ccccc1)CC2 (stereo not given) | 4
104 | CCCCCCCCCCCCCCCCCC(=O)NCCCCC(NC(=O)CCC(NC(=O)C(C)NC(=O)C(C)OC1C(O)C(CO)OC(O)C1NC(C)=O)C(N)=O)C(=O)O (stereo not given) | 4
105 | C1=CCC(c2ccccc2)CC1 (stereo not given) | 5
106 | CCC(=O)O[C@]1(C(=O)CCl)[C@@H](C)C[C@H]2[C@@H]3CCC4=CC(=O)C=C[C@]4(C)[C@@]3(F)[C@@H](O)C[C@@]21C | 5
107 | CCC(=O)/C=C/C=C(\C)CCC=C(C)C | 5
108 | CC1CC(OC(=O)C(C)Oc2ccc(Cl)cc2)CC(C)(C)C1 (stereo not given) | 5
109 | NC(=O)c1ccc(N)cc1 | 5
110 | COC1[C@@H](O[C@@H]2O[C@H](C)[C@@H](O[C@H]3C[C@@](C)(O)[C@H](OC(=O)CC(C)C)[C@H](C)O3)[C@H](N(C)C)[C@H]2O)[C@@H](CC=O)C[C@@H](C)[C@@H](O)C=CC=CC[C@@H](C)OC(=O)C[C@H]1OC(C)=O (stereo not given in full) | 5
